Test results as given in the supplement of paper PMC10307832.

How the values were obtained:
Experiment in all cases: relative viability (nuclei count vs DMSO), 5 days (fraction); higher = more cells survive
[1] = compound: Cn1c(Nc2ccc(C(F)(F)F)cc2)nc2cc(Oc3ccnc(-c4ncc(C(F)(F)F)[nH]4)c3)ccc21 [RAF265] + NC(=O)Nc1cc(-c2cccc(F)c2)sc1C(=O)N[C@H]1CCCNC1 [AZD7762] (partner 0.2 µM)
How it was run: (§1)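 Nuclei were stained with Hoechst during a one-step fixation (final 0.05% Triton X-100, 1% formaldehyde, 1 ug/ml Hoechst) carried out 5 days after dosing, then counted on 4× images. The cells, lung cancer lines in 1536-well plates, had been dosed by pin tool the day after seeding with one drug alone or a fixed anchor-drug dose plus five library-drug doses (not always all listed) in √10 steps. Relative viability is the nuclei count in treated wells divided by that in vehicle wells, and each value is the median of duplicate plates.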

[2] = compound: Cc1ccc(-n2nc(C(C)(C)C)cc2NC(=O)Nc2ccc(OCCN3CCOCC3)c3ccccc23)cc1 [Doramapimod] + COc1cc2c(Oc3ccc(NC(=O)C4(C(=O)Nc5ccc(F)cc5)CC4)cc3F)ccnc2cc1OCCCN1CCOCC1 [Foretinib] (partner 0.25 µM)
How it was run: as §1

[3] = compound: C1=CC=C2C(=C1)C=CC(=C2SSC3=C(C=CC4=CC=CC=C43)O)O [IPA-3] + COc1cc2c(Oc3ccc(NC(=O)C4(C(=O)Nc5ccc(F)cc5)CC4)cc3F)ccnc2cc1OCCCN1CCOCC1 [Foretinib] (partner 0.25 µM)
How it was run: as §1

[4] = compound: Cc1ccc(-n2nc(C(C)(C)C)cc2NC(=O)Nc2ccc(OCCN3CCOCC3)c3ccccc23)cc1 [Doramapimod] + CCNC(=O)c1noc(-c2cc(C(C)C)c(O)cc2O)c1-c1ccc(CN2CCOCC2)cc1 [Luminespib] (partner 0.01 µM)
How it was run: as §1

Row | Cell Line | relative viability ([1]; first compound 0.01 µM) | relative viability ([1]; first compound 0.03162 µM) | relative viability ([1]; first compound 0.1 µM) | relative viability ([1]; first compound 0.3162 µM) | relative viability ([1]; first compound 1 µM) | relative viability ([2]; first compound 0.02 µM) | relative viability ([2]; first compound 0.06325 µM) | relative viability ([2]; first compound 0.2 µM) | relative viability ([2]; first compound 0.6325 µM) | relative viability ([2]; first compound 2 µM) | relative viability ([3]; first compound 0.2 µM) | relative viability ([3]; first compound 0.6325 µM) | relative viability ([3]; first compound 2 µM) | relative viability ([3]; first compound 6.325 µM) | relative viability ([3]; first compound 20 µM) | relative viability ([4]; first compound 0.02 µM) | relative viability ([4]; first compound 0.06325 µM) | relative viability ([4]; first compound 0.2 µM) | relative viability ([4]; first compound 0.6325 µM) | relative viability ([4]; first compound 2 µM)
1 | SW 900 | 0.709 | 0.483 | 0.671 | 0.466 | 0.348 | 0.557 | 0.933 | 0.877 | 1.11 | 0.892 | 1.04 | 0.792 | 0.975 | 1.14 | 1.08 | 0.169 | 0.185 | 0.162 | 0.155 | 0.165
2 | NCI-H1623 | – | – | – | – | – | 0.95 | 0.791 | 0.86 | 0.743 | 0.746 | 0.97 | 0.899 | 0.878 | 0.815 | 0.923 | 0.555 | 0.505 | 0.52 | 0.571 | 0.464
3 | NCI-H3122 | 1.03 | 1.17 | 1.02 | 0.949 | 0.862 | 0.921 | 0.911 | 0.922 | 0.963 | 0.993 | 1.01 | 0.958 | 0.941 | 0.955 | 1.06 | 0.11 | 0.0996 | 0.108 | 0.0726 | 0.092
4 | NCI-H2347 | 0.74 | 0.7 | 0.832 | 0.46 | 0.22 | – | 1.03 | 1.1 | 0.861 | 1.11 | 1.24 | 0.916 | 0.908 | 0.902 | 0.899 | 0.0162 | – | 0.601 | 0.5 | 0.492
5 | HCC-44 | 1 | 0.985 | 1.03 | 1 | 0.955 | – | – | – | – | – | – | – | – | – | – | 1.06 | 1.05 | 1 | 1.24 | 0.983
6 | HCC-78 | 0.634 | 0.863 | 0.731 | 0.269 | 0.567 | 0.542 | 0.575 | 0.54 | 0.545 | 0.539 | 0.555 | 0.611 | 0.606 | 0.668 | 0.655 | – | – | – | – | –
7 | COR-L23 | – | – | – | – | – | 0.945 | 0.926 | 0.966 | 1.01 | 0.855 | 1.12 | 0.964 | 1.04 | 0.928 | 0.906 | 0.71 | 0.659 | 0.787 | 0.741 | 0.541
8 | NCI-H1993 | 0.784 | 0.82 | 0.791 | 0.602 | 0.635 | 0.844 | 0.759 | 0.808 | 0.778 | 0.68 | 0.833 | 0.654 | 0.813 | 0.776 | 0.728 | 1.85 | 0.87 | 0.64 | 0.975 | 0.744
9 | NCI-H1648 | 0.698 | 0.514 | 0.804 | 0.758 | 0.567 | – | – | – | – | – | – | – | – | – | – | – | – | – | – | –
10 | NCI-H2023 | – | – | – | – | – | 0.833 | 0.732 | 0.691 | 0.823 | 0.605 | 0.856 | 0.666 | 0.995 | 0.853 | 1.1 | 0.656 | 0.77 | 0.74 | 0.929 | 0.614
11 | NCI-H1792 | 0.638 | 0.568 | 0.475 | 0.11 | 0.0984 | – | – | – | – | – | – | – | – | – | – | 0.396 | 0.345 | 0.385 | 0.413 | 0.356
12 | NCI-H1563 | – | – | – | – | – | 0.847 | 1 | 0.962 | 0.966 | 1.08 | 0.996 | 0.87 | 1.01 | 1.01 | 0.867 | 0.449 | 0.548 | 0.535 | 0.48 | 0.481
13 | HCC-366 | 0.25 | 0.253 | 0.396 | 0.321 | 0.157 | 0.617 | 0.874 | 0.899 | 0.876 | 0.821 | 0.929 | 0.851 | 0.911 | 0.833 | 0.856 | – | – | – | – | –
14 | NCI-H522 | 0.801 | 0.872 | 0.887 | 0.985 | 0.897 | – | – | – | – | – | – | – | – | – | – | 0.929 | 1.07 | 1 | 1.12 | 1.09
15 | SK-MES-1 | – | – | – | – | – | 0.965 | 0.864 | 0.773 | 1.04 | 0.816 | 0.982 | 0.889 | 0.892 | 0.953 | 1.22 | 0.725 | 0.563 | 0.694 | 0.836 | 0.601
16 | EBC-1 | – | – | – | – | – | 0.117 | 0.102 | 0.0979 | 0.0935 | 0.1 | 0.104 | 0.113 | 0.0992 | 0.121 | 0.108 | – | – | – | – | –
17 | NCI-H1650 | – | – | – | – | – | 1.06 | 1.26 | 1.36 | 1.41 | 1.21 | 1.27 | 1.29 | 1.39 | 1.03 | 1.45 | 0.186 | 0.171 | 0.195 | 0.176 | 0.209
18 | IA-LM | – | – | – | – | – | 0.933 | 1.04 | 1.11 | 1.17 | 0.729 | 1.24 | 0.989 | 1.16 | 1.05 | 1.23 | – | – | – | – | –
19 | NCI-H1703 | 0.132 | 0.133 | 0.126 | 0.142 | 0.099 | 0.297 | 0.316 | 0.4 | 0.336 | 0.342 | 0.295 | 0.339 | 0.331 | 0.349 | 0.391 | – | – | – | – | –
20 | NCI-H661 | – | – | – | – | – | 1.05 | 1 | 1.02 | 1.04 | 0.989 | 1.01 | 0.988 | 0.995 | 0.964 | 0.997 | 0.99 | 0.917 | 0.986 | 0.914 | 0.909
21 | NCI-H2228 | – | – | – | – | – | 0.723 | 0.87 | 0.825 | 0.764 | 0.723 | 0.979 | 0.805 | 0.842 | 1.07 | 1.22 | 0.151 | 0.151 | 0.107 | 0.14 | 0.131
22 | NCI-H520 | – | – | – | – | – | 0.63 | 0.864 | 0.656 | 0.674 | 0.498 | 0.885 | 0.757 | 0.743 | 0.613 | 0.837 | 0.195 | 0.212 | 0.24 | 0.206 | 0.232
